Data set [1] can be described thus: Color tone of liquid hair dye base first preparation after storage, visually observed by three panelists. Type of data set: physicochemical. Particulars: for Color tone: room temperature; for concentration at which a stabilization effect was shown: stored at room temperature for 2 weeks, judged from full-color photographs. As to the method:
40 g of a liquid hair dye base first preparation obtained by adding thioglycerol to a liquid hair dye base (Bigen Speedy Color, manufactured by Hoyu Co. Ltd.) in an amount adjusted as shown in Table 2 was placed in a 100 ml shampoo bottle and, after purging with nitrogen gas was performed, the bottle was capped and stored at room temperature.
Immediately after the passage of a given period of storage time of the shampoo bottle in which the above liquid hair dye base first preparation was placed, the color tone of the liquid hair dye base first preparation was visually observed by three panelists. The color tones in the table show the color tones of the results observed by the largest number of the panelists (the same shall apply hereinafter). Moreover, photographs of change in color tone of the hair dye base first preparation immediately after the passage of the above given period are shown in FIG. 1 to FIG. 3. […]

Data set [2] in a line: Stability test: remaining dye in liquid hair dye base first preparation by HPLC. Type of data set: physicochemical. Conditions: finding stated in text. As to the method:
50 g of a liquid hair dye base (Bigen Speedy Color, manufactured by Hoyu Co. Ltd.) was weighed into a separable flask, and 0.1 g of thioglycerol was added. After the above separable flask was purged with nitrogen gas, the whole was stirred under a flow of nitrogen gas. After the resultant was divided into 40 g each in a 100 ml shampoo bottle and purging with nitrogen gas was performed, the bottle was capped, thereby a liquid hair dye base first preparation being prepared.
The liquid hair dye base first preparation of Example 1 was stored in a constant-temperature tank set at room temperature or 40° C. for 30 days. This first preparation was used as a sample.
About 4 g of an acetonitrile solution containing 500 ppm of benzonitrile was placed in a 10 mL sample vial and then the amount was accurately measured. About 0.2 g of the above sample was added thereto and the amount was accurately measured, followed by thorough mixing. The liquid in the sample vial was sucked by means of a syringe and was placed in a vial under filtration. Then, it was analyzed by means of a column ODS-80A in high performance liquid chromatography (HP 1100 manufactured by Hewlett-Packard Company) to measure amounts of remaining dyes in the sample.
A liquid hair dye base first preparation was prepared by performing the same operations as in Example 1 except that thioglycolic acid was used instead of thioglycerol. […]

Where [3] appears, read: 0.1 ppm (0.00001 %) added, 1 Day.
[4] abbreviates: 0.1 ppm (0.00001 %) added, 2 Weeks.
Setting [5] is: 0.1 ppm (0.00001 %) added, 4 Days.
Where [6] appears, read: 1 ppm (0.0001 %) added, 2 Weeks.
[7] abbreviates: 10 ppm (0.001 %) added, 2 Weeks.
Setting [8] is: 100 ppm (0.01 %) added, 2 Weeks.
The mark [9] stands for this setting: 1000 ppm (0.1 %) added, 2 Weeks.

Where only a bound is given, the exact number is not on record here.

Regarding `OCCS` [thioglycol, 2-mercaptoethanol], the Color tone result is reported as “black” in data set [1] (0.0001 ppm added, 1 Day); “brown” in data set [1] (0.0001 ppm added, 2 Weeks); “black” in data set [1] (0.0001 ppm added, 4 Days); “black” in data set [1] (0.001 ppm added, 1 Day); “brown” in data set [1] (0.001 ppm added, 2 Weeks); “black” in data set [1] (0.001 ppm added, 4 Days). Besides, the Color tone entry in data set [1] (0.01 ppm added, 1 Day) was “black”; in data set [1] (0.01 ppm added, 2 Weeks), “brown”; in data set [1] (0.01 ppm added, 4 Days), “black”; in data set [1] (setting [3]) it was “black”; in data set [1] (setting [4]), “brown”; in data set [1] (setting [5]), “black”. In addition, the Color tone result is recorded as “black” in data set [1] (1 ppm (0.0001 %) added, 1 Day); “brown” in data set [1] (setting [6]); “black” in data set [1] (1 ppm (0.0001 %) added, 4 Days); “black” in data set [1] (10 ppm (0.001 %) added, 1 Day); “brown” in data set [1] (setting [7]); “black” in data set [1] (10 ppm (0.001 %) added, 4 Days). Besides, the Color tone entry in data set [1] (100 ppm (0.01 %) added, 1 Day) is on record as “black”; in data set [1] (setting [8]) it was “brown”; in data set [1] (100 ppm (0.01 %) added, 4 Days), “black”; in data set [1] (1000 ppm (0.1 %) added, 1 Day), “brown”; in data set [1] (setting [9]), “orange”; in data set [1] (1000 ppm (0.1 %) added, 4 Days), “orange”. For the same molecule, the Color tone entry was “orange” in data set [1] (10000 ppm (1 %) added, 1 Day); “orange” in data set [1] (10000 ppm (1 %) added, 2 Weeks); “orange” in data set [1] (10000 ppm (1 %) added, 4 Days). In data set [1], the “concentration at which a stabilization effect was shown” value is recorded as at most 0.0001 ppm.

As to `CC(C)=CCC/C(C)=C/CS` [thiogeraniol, (E)-3,7-dimethyl-2,6-octadien-1-thiol], the Color tone entry is “black” in data set [1] (0.0001 ppm added, 1 Day); “brown” in data set [1] (0.0001 ppm added, 2 Weeks); “black” in data set [1] (0.0001 ppm added, 4 Days); “black” in data set [1] (0.001 ppm added, 1 Day); “brown” in data set [1] (0.001 ppm added, 2 Weeks); “black” in data set [1] (0.001 ppm added, 4 Days). The Color tone result in data set [1] (0.01 ppm added, 1 Day) was “black”; in data set [1] (0.01 ppm added, 2 Weeks), “brown”; in data set [1] (0.01 ppm added, 4 Days), “black”; in data set [1] (setting [3]) it was “black”; in data set [1] (setting [4]) it was “brown”; in data set [1] (setting [5]), “black”. Also, the Color tone result is listed as “black” in data set [1] (1 ppm (0.0001 %) added, 1 Day); “brown” in data set [1] (setting [6]); “black” in data set [1] (1 ppm (0.0001 %) added, 4 Days); “black” in data set [1] (10 ppm (0.001 %) added, 1 Day); “brown” in data set [1] (setting [7]); “black” in data set [1] (10 ppm (0.001 %) added, 4 Days). Besides, the Color tone result in data set [1] (100 ppm (0.01 %) added, 1 Day) is “black”; in data set [1] (setting [8]), “brown”; in data set [1] (100 ppm (0.01 %) added, 4 Days) it was “black”; in data set [1] (1000 ppm (0.1 %) added, 1 Day), “brown”; in data set [1] (setting [9]) it was “brown”; in data set [1] (1000 ppm (0.1 %) added, 4 Days), “black”. The Color tone result in data set [1] (10000 ppm (1 %) added, 1 Day) is “orange”; in data set [1] (10000 ppm (1 %) added, 2 Weeks), “orange”; in data set [1] (10000 ppm (1 %) added, 4 Days), “orange”. In addition, the “concentration at which a stabilization effect was shown” value in data set [1] is reported as at most 0.0001 ppm.

For `O=C(O)CS` [thioglycolic acid], in data set [2], the “effect on stability of p-nitro-o-phenylenediamine” value was “promotes the deterioration” and the “effect on stability of resorcin” value is “promotes the deterioration”.

The values are drawn from patent US7753966B2, “Hair dye stabilizer” (Takasago International Corporation, priority 2006, dated 2010).
